# In US11730712B2, “Functionalized long-chain hydrocarbon mono- and di-carboxylic acids and derivatives thereof, and their use for the prevention or treatment of disease” (ESPERVITA THERAPEUTICS, INC., priority 2021, dated 2023):
# Test system: Acyl-CoA synthetase activity in rat liver microsomes
# Test: Synthesis of CoA derivatives in rat liver microsomes (LCMS)
# Settings: 1 mM substrate, 30 min sample vs 0 min
# Method: Prior to the experiment a 1 mM working stock was created in primary hepatocyte media which was used to create the final dilution series of 0 (vehicle), 0.3, 1, 3, 10, and 30 μM. The final concentration of DMSO in all samples was <1%.
# For initial validation of ACS activity using palmitate, 14C-palmitate was added (0.5 μCi/ml). Each sample was equilibrated at 37° C. while shaking for 10 min before the reaction was initiated by the addition of 0.04 mg of rat microsomal preparation (ThermoFisher Scientific. Cat #RTM-CPL, Lot #RT060-A) followed by incubation for 1, 3, 10, or 30 mins. Time 0 sample with no added microsomes was used as a control. The reaction was stopped by immediately placing the reaction tube on ice followed by the rapid addition of the reaction mixture to 2.25 ml ice-cold isopropanol/heptane/2M-sulfuric acid (40:10:1, vol/vol) in a 5 ml glass vial. […] For studies that involved measurement of 14C Palmitoyl-CoA formation, 200 μl of the lower aqueous phase was added to the 5 ml of scintillation fluid and the number of DPMs were determined by liquid scintillation counting for 5 minutes using a LS6500 Liquid Scintillation Counter (Beckman Coulter). […]
# The reaction products were ionized by electrospray ion source (ESI) in positive mode. […] The resulting mass spectra were analyzed using the Xcalibur 2.1 Qualitative software package. […]
structure (smiles),measurement,value
"CC(C)(CCCc1ccc(CCCC(C)(C)C(=O)SCCNC(=O)CCNC(=O)[C@H](O)C(C)(C)COP(=O)(O)OP(=O)(O)OC[C@H]2O[C@@H](n3cnc4c(N)ncnc43)[C@H](O)[C@@H]2OP(=O)(O)O)cc1)C(=O)O [III-1-CoA, 5-[4-(4-Carboxy-4-methylpentyl)-phenyl]-2,2-dimethylpentanoic acid Coenzyme A ester]","formation of the CoA derivative, detection by LCMS",could not be confirmed using fragmentation analysis
